Assay results published in patent publication US20200032271A1, “COMBINATION THERAPY WITH LIPOSOMAL ANTISENSE OLIGONUCLEOTIDES” (Bio-Path Holdings, Inc., priority 2016, published 2020).
Several values for one entry are separate records, joined by “and”; a condition that tells them apart may be missing. Identical values can stand only once. Marks after values point to notes of the source that are not given here. [PEt] = P-ethoxy (ethyl phosphotriester) internucleoside linkage

Assay: Adverse events in study 2003-0578 (NCI CTCAE grading)
[1] = patient 1, 5 mg/m^2 monotherapy
[2] = patient 10, 5 mg/m^2 monotherapy

BP1001: liposome-incorporated P-ethoxy antisense oligodeoxynucleotide (5′-ATATTTGGCGATGGCTTC-3′, SEQ ID NO: 1) specific to grb2 mRNA, in neutral DOPC liposomes (DNA, all [PEt], methylation of C not given here; incorporated in neutral DOPC liposomes)
1: Neoplasms benign, malignant, and unspecified (incl. cysts and polyps) ≥Grade 3, number of patients (monotherapy 60 mg/m^2 (n = 3)) | Patients with AEs ≥Grade 3, number of patients (monotherapy 60 mg/m^2 (n = 3)) | Asthenia ≥Grade 3, number of patients (monotherapy 90 mg/m^2 (n = 4)) | Blood and lymphatic system disorders ≥Grade 3, number of patients (monotherapy 90 mg/m^2 (n = 4)) | Dyspnea ≥Grade 3, number of patients (monotherapy 90 mg/m^2 (n = 4)) | General disorders and administration site conditions ≥Grade 3, number of patients (monotherapy 90 mg/m^2 (n = 4)) | Hypocalcemia ≥Grade 3, number of patients (monotherapy 90 mg/m^2 (n = 4)) | Hypokalemia ≥Grade 3, number of patients (monotherapy 90 mg/m^2 (n = 4)) | Hyponatremia ≥Grade 3, number of patients (monotherapy 90 mg/m^2 (n = 4)) | Investigations ≥Grade 3, number of patients (monotherapy 90 mg/m^2 (n = 4)) | Leukocytosis ≥Grade 3, number of patients (monotherapy 90 mg/m^2 (n = 4)) | Respiratory, thoracic, and mediastinal disorders ≥Grade 3, number of patients (monotherapy 90 mg/m^2 (n = 4)) | Grade: Coagulopathy (related to study drug) [1] | Grade: Confusion [1] | Grade: Diarrhea [1] | Grade: Fever (pyrexia) [1] | Grade: Pruritus [1]
2 and 4: Grade: Mucositis [1]
Yes ^a: Dose-limiting Toxicity (DLT): Palmar-plantar erythrodysesthesia (hand and foot) syndrome [1]
2: AML progression, number of patients (monotherapy 90 mg/m^2 (n = 4)) | Pneumonia ≥Grade 3, number of patients (monotherapy 90 mg/m^2 (n = 4)) | Grade: Edema (limbs) [1] | Grade: Hyperkalemia [1] | Grade: Nausea [1] | Grade: Pain [1] | Grade: Pain in extremity [1] | Grade: Blood creatinine increased [2]
No: Dose-limiting Toxicity (DLT): Coagulopathy [1] | Dose-limiting Toxicity (DLT): Confusion [1] | Dose-limiting Toxicity (DLT): Diarrhea [1] | Dose-limiting Toxicity (DLT): Edema (limbs) [1] | Dose-limiting Toxicity (DLT): Fever (pyrexia) [1] | Dose-limiting Toxicity (DLT): Hyperkalemia [1] | Dose-limiting Toxicity (DLT): Hypocalcemia [1] | Dose-limiting Toxicity (DLT): Hypokalemia [1] | Dose-limiting Toxicity (DLT): Multi-organ failure [1] | Dose-limiting Toxicity (DLT): Nausea [1] | Dose-limiting Toxicity (DLT): Pain [1] | Dose-limiting Toxicity (DLT): Pain in extremity [1] | Dose-limiting Toxicity (DLT): Pruritus [1] | Dose-limiting Toxicity (DLT): Blood creatinine increased [2]
0: Blood and lymphatic system disorders ≥Grade 3, number of patients (monotherapy 60 mg/m^2 (n = 3)) | Cardiac disorders ≥Grade 3, number of patients (monotherapy 60 mg/m^2 (n = 3)) | Cataract ≥Grade 3, number of patients (monotherapy 60 mg/m^2 (n = 3)) | Dyspnea ≥Grade 3, number of patients (monotherapy 60 mg/m^2 (n = 3)) | Extremity Lower Edema ≥Grade 3, number of patients (monotherapy 60 mg/m^2 (n = 3)) | Eye disorders ≥Grade 3, number of patients (monotherapy 60 mg/m^2 (n = 3)) | Febrile neutropenia ≥Grade 3, number of patients (monotherapy 60 mg/m^2 (n = 3)) | Gastrointestinal disorders ≥Grade 3, number of patients (monotherapy 60 mg/m^2 (n = 3)) | General disorders and administration site conditions ≥Grade 3, number of patients (monotherapy 60 mg/m^2 (n = 3)) | Hallucinations ≥Grade 3, number of patients (monotherapy 60 mg/m^2 (n = 3)) | Heart failure ≥Grade 3, number of patients (monotherapy 60 mg/m^2 (n = 3)) | Hepatic failure ≥Grade 3, number of patients (monotherapy 60 mg/m^2 (n = 3)) | Hepatobiliary disorders ≥Grade 3, number of patients (monotherapy 60 mg/m^2 (n = 3)) | Hypocalcemia ≥Grade 3, number of patients (monotherapy 60 mg/m^2 (n = 3)) | Hypoglycemia ≥Grade 3, number of patients (monotherapy 60 mg/m^2 (n = 3)) | Hypokalemia ≥Grade 3, number of patients (monotherapy 60 mg/m^2 (n = 3)) | Hyponatremia ≥Grade 3, number of patients (monotherapy 60 mg/m^2 (n = 3)) | Hypotension ≥Grade 3, number of patients (monotherapy 60 mg/m^2 (n = 3)) | Hypovolemia ≥Grade 3, number of patients (monotherapy 60 mg/m^2 (n = 3)) | Hypoxia ≥Grade 3, number of patients (monotherapy 60 mg/m^2 (n = 3)) | Investigations ≥Grade 3, number of patients (monotherapy 60 mg/m^2 (n = 3)) | Leukocytosis ≥Grade 3, number of patients (monotherapy 60 mg/m^2 (n = 3)) | Metabolism and nutritional disorders ≥Grade 3, number of patients (monotherapy 60 mg/m^2 (n = 3)) | Multi-organ failure ≥Grade 3, number of patients (monotherapy 60 mg/m^2 (n = 3)) | Musculoskeletal and connective tissue disorders ≥Grade 3, number of patients (monotherapy 60 mg/m^2 (n = 3)) | Penile Pain ≥Grade 3, number of patients (monotherapy 60 mg/m^2 (n = 3)) | Platelet count decreased ≥Grade 3, number of patients (monotherapy 60 mg/m^2 (n = 3)) | Pneumonia ≥Grade 3, number of patients (monotherapy 60 mg/m^2 (n = 3)) | Psychiatric disorders ≥Grade 3, number of patients (monotherapy 60 mg/m^2 (n = 3)) | Renal and urinary disorders ≥Grade 3, number of patients (monotherapy 60 mg/m^2 (n = 3)) | Reproductive system and breast disorders ≥Grade 3, number of patients (monotherapy 60 mg/m^2 (n = 3)) | Respiratory distress ≥Grade 3, number of patients (monotherapy 60 mg/m^2 (n = 3)) | Respiratory failure ≥Grade 3, number of patients (monotherapy 60 mg/m^2 (n = 3)) | Respiratory, thoracic, and mediastinal disorders ≥Grade 3, number of patients (monotherapy 60 mg/m^2 (n = 3)) | Tumor lysis syndrome ≥Grade 3, number of patients (monotherapy 60 mg/m^2 (n = 3)) | Vascular disorders ≥Grade 3, number of patients (monotherapy 60 mg/m^2 (n = 3)) | Abdominal Pain ≥Grade 3, number of patients (monotherapy 90 mg/m^2 (n = 4)) | Acidosis ≥Grade 3, number of patients (monotherapy 90 mg/m^2 (n = 4)) | Acute kidney injury ≥Grade 3, number of patients (monotherapy 90 mg/m^2 (n = 4)) | Back Pain ≥Grade 3, number of patients (monotherapy 90 mg/m^2 (n = 4)) | Cardiac disorders ≥Grade 3, number of patients (monotherapy 90 mg/m^2 (n = 4)) | Cataract ≥Grade 3, number of patients (monotherapy 90 mg/m^2 (n = 4)) | Extremity Lower Edema ≥Grade 3, number of patients (monotherapy 90 mg/m^2 (n = 4)) | Eye disorders ≥Grade 3, number of patients (monotherapy 90 mg/m^2 (n = 4)) | Febrile neutropenia ≥Grade 3, number of patients (monotherapy 90 mg/m^2 (n = 4)) | Gastrointestinal disorders ≥Grade 3, number of patients (monotherapy 90 mg/m^2 (n = 4)) | Hallucinations ≥Grade 3, number of patients (monotherapy 90 mg/m^2 (n = 4)) | Heart failure ≥Grade 3, number of patients (monotherapy 90 mg/m^2 (n = 4)) | Hepatic failure ≥Grade 3, number of patients (monotherapy 90 mg/m^2 (n = 4)) | Hepatobiliary disorders ≥Grade 3, number of patients (monotherapy 90 mg/m^2 (n = 4)) | Hypoglycemia ≥Grade 3, number of patients (monotherapy 90 mg/m^2 (n = 4)) | Hypotension ≥Grade 3, number of patients (monotherapy 90 mg/m^2 (n = 4)) | Hypovolemia ≥Grade 3, number of patients (monotherapy 90 mg/m^2 (n = 4)) | Hypoxia ≥Grade 3, number of patients (monotherapy 90 mg/m^2 (n = 4)) | Multi-organ failure ≥Grade 3, number of patients (monotherapy 90 mg/m^2 (n = 4)) | Musculoskeletal and connective tissue disorders ≥Grade 3, number of patients (monotherapy 90 mg/m^2 (n = 4)) | Neoplasms benign, malignant, and unspecified (incl. cysts and polyps) ≥Grade 3, number of patients (monotherapy 90 mg/m^2 (n = 4)) | Penile Pain ≥Grade 3, number of patients (monotherapy 90 mg/m^2 (n = 4)) | Psychiatric disorders ≥Grade 3, number of patients (monotherapy 90 mg/m^2 (n = 4)) | Renal and urinary disorders ≥Grade 3, number of patients (monotherapy 90 mg/m^2 (n = 4)) | Reproductive system and breast disorders ≥Grade 3, number of patients (monotherapy 90 mg/m^2 (n = 4)) | Respiratory distress ≥Grade 3, number of patients (monotherapy 90 mg/m^2 (n = 4)) | Respiratory failure ≥Grade 3, number of patients (monotherapy 90 mg/m^2 (n = 4)) | Tumor lysis syndrome ≥Grade 3, number of patients (monotherapy 90 mg/m^2 (n = 4)) | Vascular disorders ≥Grade 3, number of patients (monotherapy 90 mg/m^2 (n = 4))
1^a: Platelet count decreased ≥Grade 3, number of patients (monotherapy 90 mg/m^2 (n = 4))
No and Yes ^a: Dose-limiting Toxicity (DLT): Mucositis [1]
3: Metabolism and nutritional disorders ≥Grade 3, number of patients (monotherapy 90 mg/m^2 (n = 4)) | Grade: Hypokalemia [1] | Grade: Palmar-plantar erythrodysesthesia (hand and foot) syndrome [1]
5: Grade: Multi-organ failure [1]
4: Patients with AEs ≥Grade 3, number of patients (monotherapy 90 mg/m^2 (n = 4))
